Data published in US6534282B2, “Detection of hypertension using immunoreactive metabolic products” (priority 1999, dated 2003).

Assays:
anti-14,15-DHET IgG = assay: Specificity of the 14,15-DHET competitive ELISA (eicosanoid panel); type: binding, goat; details: for cross-reaction with anti-14,15-DHET (in words) / cross-reaction with anti-14,15-DHET: 14,15-DHET ELISA; for cross-reactivity relative to 14,15-DHET: competition with 14,15-DHET for anti-14,15-DHET IgG in ELISA
Protocol: Synthetic 14, 15- or 8,9-DHETs were coupled to KLH using dicyclohexylcarbodiimide as previously described (25). The conjugate was used to immunize a goat and antibody titers were determined by ELISA using DHET-conjugated bovine serum albumin (BSA).
High-binding microplates were coated with protein G-purified IgG suspended in 1M carbonate, pH 9.0, (1 μg/well; 200 μl/well final volume) and then covered with paraflim. After overnight incubation at room temperature, the wells were gently washed five times with tris buffered saline (TBS), pH 7.5, containing 0.1% tween. Non-specific sites were blocked by the addition of 0.2 ml of 5% (w/v) nonfat dry milk in TBS. After two hours of incubation at room temperature, they were washed three times with TBS-tween. One μg/well of purified IgG was sufficient for quantitation of 0.5 to 100 pg/well of 14,15- or 8,9-DHETs. Samples and standards (150 μL) were added and the plates incubated for 20 minutes, after which 15 ng of the DHET-HRP conjugate was added in 50 μL of TBS. Following incubation for one hour to permit competitive binding to bound antibody, unbound material was removed by thorough washing of the wells with TBS-tween, and 150 μL of a colorimetric substrate for HRP [3,3′,5,5′ tetramethylbenzidine (TMB) and hydrogen peroxide] (Sigma Co.) was added. The plate is then incubated for 20 minutes, the reaction stopped by addition of 75 μL of 1N H2SO4, and the absorbance at 450 nm was determined using a microtiter plate reader. Under these assay conditions, the amount of color in a well is inversely proportional to the initial concentration of the sample or a standard ligand.
The specificity of the 14,15-DHET ELISA was investigated using authentic DHET and a panel of eicosanoids (Table 5) which, based on their structure, might be anticipated to compete with 14,15-DHET for binding to antibodies against 14,15-DHET. […] There was a slight cross-reaction with 8,9- and 11,12-DHET (3.3% for both).
A listing of the panel of eicosanoids used to analyze the specificity of the 14,15-DHET ELISA. These eicosanoids were selected based on the similarity of their structure to 14,15-DHET, as being anticipated to potentially compete with 14,15-DHET for binding to anti-14,15-DHET and thus interfere with such assays.

CYP2C23 = assay: Western blot of hepatic microsomes for CYP2C23; type: in vivo, rat; details: after 4 days of treatment, 10 mg/kg/day i.p., FIG. 4
Protocol: (§1) Male and female Sprague-Dawley (SD) rats (160-200 g) were purchased from Charles River Laboratories (Wilmington, Mass.) and housed in a controlled environment and fed standard laboratory chow for at least 3 days before use.
SDS-PAGE was carried out on 10% acrylamide gel. The separated proteins were electroblotted onto cellulose membrane and Western blot analyses were carried out using alkaline phosphatase system as previously described (29). Visualization of P450 bands was accomplished by incubation with a mixture of 5-bromo4-chloro-3-indolylphosphatate p-toluidine and nitrobluetetrazolium.

AA epoxygenase [1] = assay: AA oxygenase activity assay of hepatic microsomes using 14C AA, from treated rats; type: in vivo, rat; details: hepatic microsomes of rats treated i.p. 10 mg/kg/d for 4 days; incubation 10 min
Protocol: as §1
Microsomes were prepared from rat livers and kidneys as described previously (27,28). Microsomes were stored at −80° C. in 50 mM Tris acetate buffer, pH 7.4, containing 1 mM EDTA and 20% glycerol until use.
After incubation of the microsomes (1 mg protein/ml, final concentration), 0.05 M Tris-HCl buffer, pH 7.5, containing 0.15 m KCl, 10 mM MgC12, 8 mM sodium isocitrate and 0.5 IU of isocitrate dehydrogenase and, incubated with ^14C AA (1 μCi/μmol, 100 μM, final concentration) in the presence of 1 mM NADPH at 30° C. The reaction products were taken at five and ten minutes and extracted into ethyl ether containing 0.05% acetic acid. The AA oxygenase metabolites were separated by HPLC and quantitated by a radiomatic Flo-One β-detector.
The reaction products were taken at 5 and 10 min. and extracted into ethyl ether containing 0.05% acetic acid). The AA oxygenase metabolites were separated by HPLC and quantitated by a radiomatic Flo-One B-detector.

AA epoxygenase [2] = details: rats; cited from earlier work

CCCCC[C@H](O)/C=C/C=C\C/C=C\C=C\[C@@H](O)CCCC(=O)O [5(s)15(S)DiHETE]
cross-reaction with anti-14,15-DHET (in words) (anti-14,15-DHET IgG): did not cross-react | cross-reactivity relative to 14,15-DHET (anti-14,15-DHET IgG): 0.20%

CCCCC/C=C\C/C=C\C/C=C\CC(O)C(O)CCCC(=O)O (stereo not shown) [5,6-DHET]
cross-reaction with anti-14,15-DHET (in words) (anti-14,15-DHET IgG): did not cross-react | cross-reactivity relative to 14,15-DHET (anti-14,15-DHET IgG): 0.02%

CCCCC/C=C\C/C=C\C/C=C\CC1OC1CCCC(=O)O (stereo not shown) [5,6-EET]
cross-reaction with anti-14,15-DHET (in words) (anti-14,15-DHET IgG): did not cross-react | cross-reactivity relative to 14,15-DHET (anti-14,15-DHET IgG): 0.02%

CCCCC[C@H](O)/C=C/[C@@H]1[C@@H](CC(=O)CCCCC(=O)O)[C@@H](O)C[C@H]1O [6-keto-PGF1α]
cross-reaction with anti-14,15-DHET (in words) (anti-14,15-DHET IgG): did not cross-react | cross-reactivity relative to 14,15-DHET (anti-14,15-DHET IgG): <0.01%

CCCCCC=CCC=CCC(O)C(O)CC=CCCCC(=O)O (stereo not shown) [8,9-DHET, 8,9-dihydroxyeicosatrienoic acid]
cross-reaction with anti-14,15-DHET (anti-14,15-DHET IgG): 3.3% | cross-reactivity relative to 14,15-DHET (anti-14,15-DHET IgG): 3.30%

CCCCC/C=C\C/C=C\CC1OC1C/C=C\CCCC(=O)O (stereo not shown) [8,9-EET]
cross-reaction with anti-14,15-DHET (in words) (anti-14,15-DHET IgG): did not cross-react | cross-reactivity relative to 14,15-DHET (anti-14,15-DHET IgG): 0.40%

CCCCC/C=C\CC(O)C(O)C/C=C\C/C=C\CCCC(=O)O (stereo not shown) [11,12-DHET]
cross-reaction with anti-14,15-DHET (anti-14,15-DHET IgG): 3.3% | cross-reactivity relative to 14,15-DHET (anti-14,15-DHET IgG): 3.30%

CCCCC/C=C\C[C@H]1O[C@H]1C/C=C\C/C=C\CCCC(=O)O [11,12-EET]
cross-reaction with anti-14,15-DHET (in words) (anti-14,15-DHET IgG): did not cross-react | cross-reactivity relative to 14,15-DHET (anti-14,15-DHET IgG): 0.05%

CCCCCC(O)C(O)CC=CCC=CCC=CCCCC(=O)O (stereo not shown) [14,15-DHET, 14,15-dihydroxyeicosatrienoic acid]
cross-reactivity relative to 14,15-DHET (anti-14,15-DHET IgG): 100.00%

CCCCCC1OC1C/C=C\C/C=C\C/C=C\CCCC(=O)O (stereo not shown) [14,15-EET]
cross-reaction with anti-14,15-DHET (in words) (anti-14,15-DHET IgG): did not cross-react | cross-reactivity relative to 14,15-DHET (anti-14,15-DHET IgG): 1.50%

CCCCC[C@H](O)/C=C/C=C\C/C=C\C/C=C\CCCC(=O)O [15(S)HETE]
cross-reaction with anti-14,15-DHET (in words) (anti-14,15-DHET IgG): did not cross-react | cross-reactivity relative to 14,15-DHET (anti-14,15-DHET IgG): 1.00%

C[C@@H]1C[C@H]2[C@@H]3CCC4=CC(=O)C=C[C@]4(C)[C@@]3(F)[C@@H](O)C[C@]2(C)[C@@]1(O)C(=O)CO [DEX, dexamethasone]
hepatic CYP2C23 protein level (CYP2C23): decreased dramatically | 11,12-EET formed (AA epoxygenase [1]): 73 ng EET formed/mg protein | 14,15-EET formed (AA epoxygenase [1]): 97 ng EET formed/mg protein

CCCCC[C@H](O)/C=C/[C@H]1[C@H](O)CC(=O)[C@@H]1C/C=C\CCCC(=O)O [PGE2]
cross-reaction with anti-14,15-DHET (in words) (anti-14,15-DHET IgG): did not cross-react | cross-reactivity relative to 14,15-DHET (anti-14,15-DHET IgG): <0.01%

CCCCC[C@H](O)/C=C/[C@@H]1[C@@H](C/C=C\CCCC(=O)O)[C@@H](O)C[C@H]1O [PGF2α]
cross-reaction with anti-14,15-DHET (in words) (anti-14,15-DHET IgG): did not cross-react | cross-reactivity relative to 14,15-DHET (anti-14,15-DHET IgG): <0.01%

CCCCC[C@H](O)/C=C/[C@H]1OC(O)C[C@H](O)[C@@H]1C/C=C\CCCC(=O)O (stereo partly shown) [Thromboxane B2]
cross-reaction with anti-14,15-DHET (in words) (anti-14,15-DHET IgG): did not cross-react | cross-reactivity relative to 14,15-DHET (anti-14,15-DHET IgG): 0.02%

CCCCC/C=C\C/C=C\C/C=C\C/C=C\CCCC(=O)O [arachidonic acid]
cross-reaction with anti-14,15-DHET (in words) (anti-14,15-DHET IgG): did not cross-react | cross-reactivity relative to 14,15-DHET (anti-14,15-DHET IgG): 0.05%

Clc1ccccc1C(c1ccccc1)(c1ccccc1)n1ccnc1 [clotrimazole]
blood pressure effect (AA epoxygenase [2]): induced salt-sensitive and clotrimazoledependent hypertension | urinary excretion of Na+, EETs and DHETs (AA epoxygenase [2]): decreased
